{
  "source": "PubChem BioAssay AID1259409",
  "about": "(Chemical Carcinogenesis Research Information System (CCRIS), 2018)",
  "origin": "cited, not measured here",
  "tested_on": "rodent chemically induced tumor inhibition, incidence and multiplicity",
  "experiment": "CCRIS tumor inhibitor studies",
  "data": [
    {"smiles": "CC1=C(/C=C/C(C)=C/C=C/C(C)=C/C(=O)O)C(C)(C)CCC1", "values": [
      {"measurement": "tumour outcome (control, treated, inhibition, significance)", "setting": "Carcinogen: 7,12-DIMETHYLBENZ[A]ANTHRACENE, 57-97-6, Dose [Inhibitor]: 68 NMOL IN 0.2 ML ACETONE ONCE 1 HR BEFORE APPLICATION OF CARCINOGEN (STUDY DURATION: 21 WK), Route [Inhibitor]: DERMAL, Species: MOUSE, Strain/Sex: CD-1/FEMALE, Target Tissue: Type of Lesion: SKIN: PAPILLOMA, Dose [Carcinogen]: 0.2 UMOL IN 0.2 ML ACETONE ONCE, Promoter: 12-O-TETRADECANOYLPHORBOL-13-ACETATE, 16561-29-8", "value": "95%, 92%, 3%, not significant"},
      {"measurement": "tumour outcome (control, treated, inhibition, significance)", "setting": "Carcinogen: 7,12-DIMETHYLBENZ[A]ANTHRACENE, 57-97-6, Dose [Inhibitor]: 170 NMOL IN 0.2 ML ACETONE 1 HR PRIOR TO EACH PROMOTER DOSE FOR 12 WK (STUDY DURATION: 14 WK), Route [Inhibitor]: DERMAL, Species: MOUSE, Strain/Sex: SENCAR/FEMALE, Target Tissue: Type of Lesion: SKIN: PAPILLOMA, Dose [Carcinogen]: 200 NMOL IN 0.2 ML ACETONE ONCE, Promoter: 12-O-TETRADECANOYLPHORBOL-13-ACETATE, 16561-29-8", "value": "100%, 87%, 13%, not calculated"},
      {"measurement": "tumour outcome (control, treated, inhibition, significance)", "setting": "Carcinogen: 7,12-DIMETHYLBENZ[A]ANTHRACENE, 57-97-6, Dose [Inhibitor]: 170 NMOL IN 0.2 ML ACETONE 1 HR PRIOR TO EACH PROMOTER DOSE FOR 20 WK (STUDY DURATION: 22 WK), Route [Inhibitor]: DERMAL, Species: MOUSE, Strain/Sex: CD-1/FEMALE, Target Tissue: Type of Lesion: SKIN: PAPILLOMA, Dose [Carcinogen]: 200 NMOL IN 0.2 ML ACETONE ONCE, Promoter: 12-O-TETRADECANOYLPHORBOL-13-ACETATE, 16561-29-8", "value": "94%, 63%, 33%, not calculated"},
      {"measurement": "tumour outcome (control, treated, inhibition, significance)", "setting": "Carcinogen: DIETHYLNITROSAMINE, 55-18-5, Dose [Inhibitor]: 0, 10000 IU/KG IN CORN OIL FOR DURATION OF STUDY BEGINNING 7 D PRIOR TO FIRST CARCINOGEN DOSE (STUDY DURATION: 6 MO), Route [Inhibitor]: GAVAGE, Species: RAT, Strain/Sex: BD6/FEMALE, Target Tissue: Type of Lesion: ESOPHAGUS: TUMOR, Dose [Carcinogen]: 80 MG/KG BW 1/WK FOR 8 WK, Promoter: NONE USED", "value": "20%, 13%, 35%, not significant"},
      {"measurement": "tumour outcome (control, treated, inhibition, significance)", "setting": "Carcinogen: DIETHYLNITROSAMINE, 55-18-5, Dose [Inhibitor]: 0, 10000 IU/KG IN CORN OIL FOR DURATION OF STUDY BEGINNING 7 D PRIOR TO FIRST CARCINOGEN DOSE (STUDY DURATION: 6 MO), Route [Inhibitor]: GAVAGE, Species: RAT, Strain/Sex: BD6/FEMALE, Target Tissue: Type of Lesion: LIVER: TUMOR, Dose [Carcinogen]: 80 MG/KG BW 1/WK FOR 8 WK, Promoter: NONE USED", "value": "83%, 91%, -10%, not significant"},
      {"measurement": "tumour outcome (control, treated, inhibition, significance)", "setting": "Carcinogen: DIETHYLNITROSAMINE, 55-18-5, Dose [Inhibitor]: 0, 20000 IU/KG IN CORN OIL FOR DURATION OF STUDY BEGINNING 7 D PRIOR TO FIRST CARCINOGEN DOSE (STUDY DURATION: 6 MO), Route [Inhibitor]: GAVAGE, Species: RAT, Strain/Sex: BD6/FEMALE, Target Tissue: Type of Lesion: ESOPHAGUS: TUMOR, Dose [Carcinogen]: 80 MG/KG BW 1/WK FOR 8 WK, Promoter: NONE USED", "value": "30%, 13%, 57%, not significant"},
      {"measurement": "tumour outcome (control, treated, inhibition, significance)", "setting": "Carcinogen: DIETHYLNITROSAMINE, 55-18-5, Dose [Inhibitor]: 0, 20000 IU/KG IN CORN OIL FOR DURATION OF STUDY BEGINNING 7 D PRIOR TO FIRST CARCINOGEN DOSE (STUDY DURATION: 6 MO), Route [Inhibitor]: GAVAGE, Species: RAT, Strain/Sex: BD6/FEMALE, Target Tissue: Type of Lesion: LIVER: TUMOR, Dose [Carcinogen]: 80 MG/KG BW 1/WK FOR 8 WK, Promoter: NONE USED", "value": "85%, 93%, -9%, not significant"},
      {"measurement": "tumour outcome (control, treated, inhibition, significance)", "setting": "Carcinogen: N-METHYL-N'-NITRO-N-NITROSOGUANIDINE, 70-25-7, Dose [Inhibitor]: 0, 0.75 MG/KG BW 1/2 D FOR 26 WK BEGINNING POST CARCINOGEN TREATMENT (STUDY DURATION: 52 WK), Route [Inhibitor]: SUBCUTANEOUS, Species: RAT, Strain/Sex: WISTAR/MALE, Target Tissue: Type of Lesion: STOMACH: ADENOCARCINOMA, Dose [Carcinogen]: 25 UG/ML IN DRINKING WATER FOR 25 WK, Promoter: SODIUM CHLORIDE, 7647-14-5", "value": "17/20 (85%), 8/20 (40%), 53% p<0.01"},
      {"measurement": "tumour outcome (control, treated, inhibition, significance)", "setting": "Carcinogen: N-METHYL-N'-NITRO-N-NITROSOGUANIDINE, 70-25-7, Dose [Inhibitor]: 0, 1.5 MG/KG BW 1/2 D FOR 26 WK BEGINNING POST CARCINOGEN TREATMENT (STUDY DURATION: 52 WK), Route [Inhibitor]: SUBCUTANEOUS, Species: RAT, Strain/Sex: WISTAR/MALE, Target Tissue: Type of Lesion: STOMACH: ADENOCARCINOMA, Dose [Carcinogen]: 25 UG/ML IN DRINKING WATER FOR 25 WK, Promoter: SODIUM CHLORIDE, 7647-14-5", "value": "17/20 (85%), 7/20 (35%), 59%, p<0.01"},
      {"measurement": "tumour outcome (control, treated, inhibition, significance)", "setting": "Carcinogen: N-NITROSO-N-METHYLUREA, 684-93-5, Dose [Inhibitor]: 0, 60 MG/KG OF DIET FOR 3 MO BEGINNING 1 WK POST CARCINOGEN DOSE (STUDY DURATION: 100 D), Route [Inhibitor]: ORAL, Species: RAT, Strain/Sex: SPRAGUE-DAWLEY/FEMALE, Target Tissue: Type of Lesion: MAMMARY GLAND: TUMOR, Dose [Carcinogen]: 50 MG/KG BW ONCE, Promoter: NONE USED", "value": "100%, 92%, 8%, not significant"},
      {"measurement": "tumour outcome (control, treated, inhibition, significance)", "setting": "Carcinogen: N-NITROSO-N-METHYLUREA, 684-93-5, Dose [Inhibitor]: 0, 120 MG/KG OF DIET FOR 13 MO BEGINNING 1 WK POST CARCINOGEN DOSE (STUDY DURATION: 100 D), Route [Inhibitor]: ORAL, Species: RAT, Strain/Sex: SPRAGUE-DAWLEY/FEMALE, Target Tissue: Type of Lesion: MAMMARY GLAND: TUMOR, Dose [Carcinogen]: 50 MG/KG BW ONCE, Promoter: NONE USED", "value": "100%, 83%, 17%, not significant"}
    ]}
  ]
}
